Assay results published in PMC6267684, “Pharmacokinetic evaluation of the PNC disassembler metarrestin in wild-type and Pdx1-Cre;LSL-Kras^G12D/+;Tp53^R172H/+ (KPC) mice, a genetically engineered model of pancreatic cancer” (Cancer Chemotherapy and Pharmacology, 2018).

What was measured:
[1] = Steady-state PK in KPC mice fed metarrestin-infused chow; type: in vivo; conditions: 25 mg/kg PO chow MD
Method: Metarrestin [ML-246; Trans-4-(7-benzyl-4-imino-5,6-diphenyl-4,7-dihydro-3H-pyrrolo[2,3-d]pyrimidin-3-yl) cyclohexanol] was manufactured in-house using the previously described 4-step synthesis sequence. Purity (> 98%) was determined by LC-MS/MS and 1H-NMR analysis as previously reported. To enhance bioavailability, the drug was micronized to particles of uniform small size with greater surface area using a technique proprietary to Crititech Inc. (Lawrence, Kansas). In brief, the drug substance was dissolved in organic solvent dichloromethane and precipitated using compressed super critical carbon dioxide as the anti-solvent. The produced material had 90% particles with a diameter less than 1.131 µm with a mean diameter of 0.829 µm (Suppl. Figure 1). […]
An ultra-performance liquid chromatography–tandem mass spectrometry (UPLC–MS/MS) method was developed to determine metarrestin concentrations in plasma and tissue samples. […] Data were analyzed using MassLynx V4.1.
The pharmacokinetic parameters were calculated using the non-compartmental approach (Models 200 and 201) of the pharmacokinetic software Phoenix WinNonlin, version 6.4 (Certara, St. Louis, MO). The area under the plasma concentration vs time curve (AUC) was calculated using the linear trapezoidal method. […]

[2] = Freeze-thaw stability in mouse plasma; type: in vitro ADME; conditions: after three freeze-thaw cycles
Method: Bioanalytical method validation was performed in mouse plasma and mouse liver. The linear calibration range for metarrestin was 1.0–1000 ng/mL for plasma and 5.0–20,000 ng/g for liver homogenate. The lower limit of quantitation of the assay was 1.0 ng/mL in plasma and 5.0 ng/g in liver homogenate. The accuracy of calibration standards was between within 8% of the nominal values. Intra-assay variance and deviation from nominal values were calculated at low quality-control (LOQ, 1.0 ng/mL plasma and 5.0 ng/g liver), middle quality-control (MQC, 10.0 ng/mL and 500 ng/g), and high quality-control (HQC, 1000 ng/mL and 20,000 ng/g) levels for six replicates, each of the same analytical run (Suppl. Tables 1, 2). The variance of the QC samples (CV%, […]) ranged from 1.0 to 5.1% and the deviation was between 3 and 6% from nominal values. No endogenous interference was found at the retention time for metarrestin and internal standard as verified by testing control blank plasma and liver homogenate. Metarrestin was stable in mouse plasma after three freeze-thaw cycles.

KPC and PC3M cells = assay: UPLC–MS/MS measurement of cellular metarrestin concentration; type: cell-based; conditions: 1 and 10 µM, within 40 min
PNC in PC3M cells = assay: PNC disassembly assay in PC3M cells; type: cell-based; conditions: PC3M (PTB-GFP) cells
Method: The PNC disassembly assay has been previously described. […] Cells were fixed with […] for 10 min at room temperature. […] Confocal images were obtained using Opera Phoenix (PerkinElmer, Waltham, MA) and a 20× objective lens.
To examine whether measured intratumor metarrestin concentrations measured in PK studies track with intracellular metarrestin concentration, we first decided to synthesize a fluorophore conjugated analog of metarrestin. Structure activity relationship studies around the structure of metarrestin were conducted in a high throughput assay that measured in dose dependence the ability of compounds to reducing PNC prevalence in PC3M cells. […] This analog was chemically conjugated to the fluorophore boron-dipyrromethene (BODIPY®) to track the disassembly of the PNC in PC3M cancer cells by confocal microscopy (Suppl. Figure 2). […] Next, to examine cellular metarrestin levels in relation to extracellular concentrations, we exposed KPC and PC3M cells at 1 and 10 µM concentrations of metarrestin and harvested cells at different timepoints.

N=c1c2c(-c3ccccc3)c(-c3ccccc3)n(Cc3ccccc3)c2ncn1[C@H]1CC[C@H](O)CC1 [metarrestin, Trans-4-(7-benzyl-4-imino-5,6-diphenyl-4,7-dihydro-3H-pyrrolo[2,3-d]pyrimidin-3-yl) cyclohexanol]
intratumor AUC0–24h [1]: 396,000 h ng/mL
stability in mouse plasma [2]: stable
cellular levels, % of media concentrations (KPC and PC3M cells): 40–100%
IC50 (PNC in PC3M cells; Homo sapiens, PC-3M): 0.4 µM
IC50 (PNC in PC3M cells): 0.397 µM
